Test results published in patent publication US20250313548A1 (Actio Biosciences, Inc., priority 2023, published 2025).

What follows are molecules tested against human, KCNT1 (Homo sapiens (Human), UniProt Q5JUK3) (assay: FLIPR Tl/K Flux Assay). Settings: HEK293 cells stably expressing human KCNT1; Tl+ flux stimulated with EC80 of agonist Loxapine.
Type: cell-based
Summary of the method: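 Inhibition values come from a Hill-equation fit of % inhibition versus log concentration, using normalized fluorescence (Fmax/Fmin) over a 160 s read. The read followed stimulation with Tl+ plus EC80 agonist loxapine after 30 min compound pre-incubation at 25 °C. Cells were KCNT1-expressing HEK293, dye-loaded 1 h in pH 7.4 HEPES/HBSS with 5 mM probenecid.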

Chain of human, KCNT1 (Q5JUK3 whole entry): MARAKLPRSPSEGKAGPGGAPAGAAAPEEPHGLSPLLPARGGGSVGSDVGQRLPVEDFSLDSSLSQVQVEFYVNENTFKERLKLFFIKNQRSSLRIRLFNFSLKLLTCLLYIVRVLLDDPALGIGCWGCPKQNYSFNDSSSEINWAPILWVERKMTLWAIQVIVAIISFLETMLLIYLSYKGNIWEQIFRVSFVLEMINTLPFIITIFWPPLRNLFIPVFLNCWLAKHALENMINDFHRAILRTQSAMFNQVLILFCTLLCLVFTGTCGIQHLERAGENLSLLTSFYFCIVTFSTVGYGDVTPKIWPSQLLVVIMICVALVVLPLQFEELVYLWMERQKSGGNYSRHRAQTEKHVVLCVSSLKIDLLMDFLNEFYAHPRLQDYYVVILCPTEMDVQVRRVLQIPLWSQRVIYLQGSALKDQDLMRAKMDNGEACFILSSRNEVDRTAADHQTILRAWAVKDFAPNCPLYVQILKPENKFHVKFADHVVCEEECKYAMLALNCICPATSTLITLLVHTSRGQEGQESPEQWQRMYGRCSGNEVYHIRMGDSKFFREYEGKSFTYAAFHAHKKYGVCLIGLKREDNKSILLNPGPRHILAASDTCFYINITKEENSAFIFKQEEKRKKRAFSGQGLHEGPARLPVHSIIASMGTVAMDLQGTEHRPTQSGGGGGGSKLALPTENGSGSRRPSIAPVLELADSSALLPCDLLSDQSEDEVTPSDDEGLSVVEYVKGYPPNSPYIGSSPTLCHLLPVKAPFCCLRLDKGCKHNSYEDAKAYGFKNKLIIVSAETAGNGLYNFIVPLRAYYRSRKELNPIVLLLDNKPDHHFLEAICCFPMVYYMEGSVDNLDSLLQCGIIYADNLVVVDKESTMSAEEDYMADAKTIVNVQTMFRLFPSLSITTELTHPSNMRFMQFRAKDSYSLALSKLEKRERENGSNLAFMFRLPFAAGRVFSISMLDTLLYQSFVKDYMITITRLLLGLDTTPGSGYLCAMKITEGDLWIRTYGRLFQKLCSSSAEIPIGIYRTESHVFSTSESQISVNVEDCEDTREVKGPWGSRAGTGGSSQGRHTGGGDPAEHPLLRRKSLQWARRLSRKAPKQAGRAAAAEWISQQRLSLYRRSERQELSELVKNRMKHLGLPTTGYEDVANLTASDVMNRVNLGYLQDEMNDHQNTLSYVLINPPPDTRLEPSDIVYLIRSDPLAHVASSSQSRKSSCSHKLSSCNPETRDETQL

Row | Molecule | IC50
1 | COc1cc(-c2cc3n(n2)CC[C@@H]3NC(=O)c2nc(C)nn2C)ccn1 [Compound I-230a, (S)-N-(2-(2-Methoxypyridin-4-yl)-5,6-dihydro-4H-pyrrolo[1,2-b]pyrazol-4-yl)-1,3-dimethyl-1H-1,2,4-triazole-5-carboxamide] | > 1 µM
2 | Cn1nc(C(F)(F)F)cc1C(=O)NC1(C)CCCc2nn(-c3ccnc(C(F)(F)F)c3)cc21 (stereo not shown) [Compound I-51] | > 1 µM
3 | O=C(N[C@H]1CCCc2oc(-c3ccnc(C(F)(F)F)c3)nc21)c1cn(C(F)(F)F)nc1C(F)F [Compound I-506a, (S)-3-(Difluoromethyl)-1-(trifluoromethyl)-N-(2-(2-(trifluoromethyl)pyridin-4-yl)-4,5,6,7-tetrahydrobenzo[d]oxazol-4-yl)-1H-pyrazole-4-carboxamide] | < 0.25 µM
4 | CC(C)n1cnc(C(=O)N[C@H]2CCCn3nc(-c4ccnc(C(F)(F)F)c4)cc32)n1 [Compound I-412a] | > 1 µM
5 | N#Cc1cccc(C(=O)N[C@H]2CCCCn3nc(-c4ccnc(C(F)(F)F)c4)cc32)c1 [Compound I-443a] | < 0.25 µM
6 | Cc1nn(C(F)(F)F)cc1C(=O)N[C@H]1CCn2nc(-c3ccnc(C(F)(F)F)c3)cc21 [Compound I-556a] | < 0.25 µM
7 | CC(C)c1cc(-c2cc3n(n2)CCC[C@@H]3NC(=O)c2cc(C(F)(F)F)nn2C)ccn1 [Compound I-429a] | < 0.25 µM
8 | CCOc1cc(-n2cc3c(n2)CCCC3NC(=O)c2cc(C(F)(F)F)nn2CC)ccn1 (racemic) [Compound I-55, (rac)-N-(2-(2-Ethoxypyridin-4-yl)-4,5,6,7-tetrahydro-2H-indazol-4-yl)-1-ethyl-3-(trifluoromethyl)-1H-pyrazole-5-carboxamide] | < 0.25 µM
9 | (rac)-N-(2-(2-Cyclopropylpyridin-4-yl)-4,5,6,7-tetrahydropyrazolo[1,5-a]pyridin-4-yl)-6-(trifluoromethyl)nicotinamide [Compound I-65] | < 0.25 µM
10 | Cc1cccc(C(=O)NC2CCCc3nn(-c4ccnc(C(F)(F)F)c4)cc32)c1 (racemic) [Compound I-17, (rac)-3-Methyl-N-(2-(2-(trifluoromethyl)pyridin-4-yl)-4,5,6,7-tetrahydro-2H-indazol-4-yl)benzamide] | < 0.25 µM
11 | Cn1nc(C(F)(F)F)cc1C(=O)N[C@H]1CCCc2cc(-c3ccnc(C(F)(F)F)c3)sc21 [Compound I-81a] | < 0.25 µM
12 | Cn1nc(C(F)(F)F)cc1C(=O)N[C@H]1CCc2nn(-c3ccnc(C4CC4)c3)cc21 [Compound I-71a] | < 0.25 µM
13 | N#Cc1cccc(C(=O)N[C@H]2CCCc3nn(-c4ccnc(C(F)(F)F)c4)cc32)c1 [Compound I-112a, (S)-3-Cyano-N-(2-(2-(trifluoromethyl)pyridin-4-yl)-4,5,6,7-tetrahydro-2H-indazol-4-yl)benzamide] | < 0.25 µM
14 | COc1cc(-c2nc3c(o2)[C@@H](NC(=O)c2ccnc(OC(F)(F)F)c2)CCC3)ccn1 [Compound I-135a, (S)-N-(2-(2-Methoxypyridin-4-yl)-4,5,6,7-tetrahydrobenzo[d]oxazol-7-yl)-2-(trifluoromethoxy)isonicotinamide] | < 0.25 µM
15 | COc1cc(-c2cc3n(n2)CCC[C@@H]3NC(=O)c2cc(C(F)(F)F)nn2C)cc(OC)n1 [Compound I-344a] | > 1 µM
16 | CC(C)(O)c1cc(F)cc(C(=O)N[C@H]2CCn3nc(-c4ccnc(C(F)(F)F)c4)cc32)c1 [Compound I-570a, (S)-3-Fluoro-5-(2-hydroxypropan-2-yl)-N-(2-(2-(trifluoromethyl)pyridin-4-yl)-5,6-dihydro-4H-pyrrolo[1,2-b]pyrazol-4-yl)benzamide] | < 0.25 µM
17 | Cn1nc(C(F)(F)F)nc1C(=O)N[C@H]1CCCc2nn(-c3ccnc(C(F)(F)F)c3)cc21 [Compound I-50a] | < 0.25 µM
18 | COc1cc(-c2cc3n(n2)CC[C@@H]3NC(=O)c2cc3cccnn3c2)ccn1 [Compound I-292a, (S)-N-(2-(2-Methoxypyridin-4-yl)-5,6-dihydro-4H-pyrrolo[1,2-b]pyrazol-4-yl)pyrrolo[1,2-b]pyridazine-6-carboxamide] | < 0.25 µM
19 | Cn1nc(C(F)(F)F)cc1C(=O)N[C@H]1CCCc2nn(-c3ccnc(C(=O)O)c3)cc21 [Compound I-88a] | > 1 µM
20 | COc1cc(-n2cc3c(n2)CC[C@@H]3NC(=O)c2cc(C(F)(F)F)nn2C)cc(C)n1 [Compound I-336a, (S)-N-(2-(2-Methoxy-6-methylpyridin-4-yl)-2,4,5,6-tetrahydrocyclopenta[c]pyrazol-4-yl)-1-methyl-3-(trifluoromethyl)-1H-pyrazole-5-carboxamide] | 0.5 to 1 µM
21 | Cc1c(-c2ccnc(C(F)(F)F)c2)nn2c1[C@H](NC(=O)c1cc(C(F)(F)F)nn1C)CCC2 [Compound I-353b] | 0.5 to 1 µM
22 | CC(F)(F)c1cc(-c2nc3c(o2)CCCC3NC(=O)c2cn(C(F)(F)F)nc2C(F)F)ccn1 (single isomer, unassigned) [Compound I-535] | < 0.25 µM
23 | Cn1nc(C(F)(F)F)cc1C(=O)N[C@H]1CCCc2cc(-c3ccnc(C(F)(F)F)c3)[nH]c21 [Compound I-89a, (S)-1-Methyl-3-(trifluoromethyl)-N-(2-(2-(trifluoromethyl)pyridin-4-yl)-4,5,6,7-tetrahydro-1H-indol-7-yl)-1H-pyrazole-5-carboxamide] | > 1 µM
24 | Cn1nc(C(F)(F)F)cc1C(=O)N[C@H]1CCCn2nc(-c3cc(C(F)(F)F)ncc3F)cc21 [Compound I-209a, (S)-N-(2-(5-Fluoro-2-(trifluoromethyl)pyridin-4-yl)-4,5,6,7-tetrahydropyrazolo[1,5-a]pyridin-4-yl)-1-methyl-3-(trifluoromethyl)-1H-pyrazole-5-carboxamide] | < 0.25 µM

Now from value to molecule:

Row | IC50 | Molecule
25 | < 0.25 µM | COc1cc(-c2cc3n(n2)CC[C@@H]3NC(=O)c2nc(C(F)(F)F)nn2C)ccn1 [Compound I-237a, (S)-N-(2-(2-Methoxypyridin-4-yl)-5,6-dihydro-4H-pyrrolo[1,2-b]pyrazol-4-yl)-1-methyl-3-(trifluoromethyl)-1H-1,2,4-triazole-5-carboxamide]
26 | < 0.25 µM | N#Cc1cc(F)cc(C(=O)N[C@H]2CCCn3nc(-c4ccnc(C5CC5)c4)cc32)c1 [Compound I-262a]
27 | < 0.25 µM | CC(F)(F)c1cc(-c2nc3c(o2)CCC[C@@H]3NC(=O)c2cn(C(F)(F)F)nc2C(F)(F)F)ccn1 [Compound I-545a, (S)—N-(2-(2-(1,1-difluoroethyl)pyridin-4-yl)-4,5,6,7-tetrahydrobenzo[d]oxazol-4-yl)-1,3-bis(trifluoromethyl)-1H-pyrazole-4-carboxamide]
28 | < 0.25 µM | O=C(N[C@H]1CCc2nn(-c3ccnc(C(F)(F)F)c3)cc21)c1cncc(C(F)(F)F)n1 [Compound I-565a, (S)-6-(Trifluoromethyl)-N-(2-(2-(trifluoromethyl)pyridin-4-yl)-2,4,5,6-tetrahydrocyclopenta[c]pyrazol-4-yl)pyrazine-2-carboxamide]
29 | < 0.25 µM | CC(C)c1cc(C(=O)N[C@H]2CCCn3nc(-c4ccnc(C(F)(F)F)c4)cc32)n(C)n1 [Compound I-350a]
30 | < 0.25 µM | O=C(N[C@H]1CCCc2cnc(-c3ccnc(C(F)(F)F)c3)cc21)c1cccc(C(F)(F)F)c1 [Compound I-392a]
31 | < 0.25 µM | CC(C)(C)OC(=O)N[C@H]1CCc2nn(-c3ccnc(C(F)(F)F)c3)cc21 [Compound I-105a]
32 | < 0.25 µM | COc1cc(-c2nc3c(o2)[C@@H](NC(=O)c2cccc(OC(F)(F)F)c2)CCC3)ccn1 [Compound I-151a, (S)-N-(2-(2-Methoxypyridin-4-yl)-4,5,6,7-tetrahydrobenzo[d]oxazol-7-yl)-3-(trifluoromethoxy)benzamide]
33 | < 0.25 µM | Cn1cc(C(=O)N[C@H]2CCCn3nc(-c4ccnc(C(F)(F)F)c4)cc32)c(C(F)F)n1 [Compound I-415a]
34 | < 0.25 µM | O=C(N[C@H]1CCCc2oc(-c3ccnc(C(F)(F)F)c3)nc21)C12CC(C(F)(F)F)(C1)C2 [Compound I-507a, (S)-3-(Trifluoromethyl)-N-(2-(2-(trifluoromethyl)pyridin-4-yl)-4,5,6,7-tetrahydrobenzo[d]oxazol-4-yl)bicyclo[1.1.1]pentane-1-carboxamide]
35 | < 0.25 µM | O=C(N[C@H]1CCCc2nc(-c3ccnc(C4CC4)c3)oc21)c1ccnc(OC(F)(F)F)c1 [Compound I-169a, (S)-N-(2-(2-Cyclopropylpyridin-4-yl)-4,5,6,7-tetrahydrobenzo[d]oxazol-7-yl)-2-(trifluoromethoxy)isonicotinamide]
36 | < 0.25 µM | CC(F)(F)c1cc(-c2nc3c(o2)CCC[C@@H]3NC(=O)c2cccc(F)c2)ccn1 [Compound I-508a, (S)—N-(2-(2-(1,1-difluoroethyl)pyridin-4-yl)-4,5,6,7-tetrahydrobenzo[d]oxazol-4-yl)-3-fluorobenzamide]
37 | < 0.25 µM | N#Cc1cc(F)cc(C(=O)N[C@H]2CCn3nc(-c4ccnc(C(F)(F)F)c4)cc32)c1 [Compound I-323a, (S)-3-Cyano-5-fluoro-N-(2-(2-(trifluoromethyl)pyridin-4-yl)-5,6-dihydro-4H-pyrrolo[1,2-b]pyrazol-4-yl)benzamide]
38 | < 0.25 µM | Cc1cnc(C(F)(F)F)cc1-n1cc2c(n1)CC[C@@H]2NC(=O)c1cccc(C#N)c1 [Compound I-235a, (S)-3-Cyano-N-(2-(5-methyl-2-(trifluoromethyl)pyridin-4-yl)-2,4,5,6-tetrahydrocyclopenta[c]pyrazol-4-yl)benzamide]
39 | < 0.25 µM | Cn1nc(C(F)(F)F)nc1C(=O)N[C@H]1CCn2nc(-c3ccnc(C(C)(F)F)c3)cc21 [Compound I-146a, (S)—N-(2-(2-(1,1-Difluoroethyl)pyridin-4-yl)-5,6-dihydro-4H-pyrrolo[1,2-b]pyrazol-4-yl)-1-methyl-3-(trifluoromethyl)-1H-1,2,4-triazole-5-carboxamide]
40 | < 0.25 µM | O=C(N[C@H]1CCCc2oc(-c3ccnc(C(F)(F)F)c3)nc21)c1cnn(C(F)(F)F)c1C(F)(F)F [Compound I-531a, (S)-1,5-bis(trifluoromethyl)-N-(2-(2-(trifluoromethyl)pyridin-4-yl)-4,5,6,7-tetrahydrobenzo[d]oxazol-4-yl)-1H-pyrazole-4-carboxamide]
